This assay has as its target T1, Mucosa-associated lymphoid tissue lymphoma translocation protein 1 (Homo sapiens, UniProt Q9UDY8).
T1 sequence (Q9UDY8 whole entry): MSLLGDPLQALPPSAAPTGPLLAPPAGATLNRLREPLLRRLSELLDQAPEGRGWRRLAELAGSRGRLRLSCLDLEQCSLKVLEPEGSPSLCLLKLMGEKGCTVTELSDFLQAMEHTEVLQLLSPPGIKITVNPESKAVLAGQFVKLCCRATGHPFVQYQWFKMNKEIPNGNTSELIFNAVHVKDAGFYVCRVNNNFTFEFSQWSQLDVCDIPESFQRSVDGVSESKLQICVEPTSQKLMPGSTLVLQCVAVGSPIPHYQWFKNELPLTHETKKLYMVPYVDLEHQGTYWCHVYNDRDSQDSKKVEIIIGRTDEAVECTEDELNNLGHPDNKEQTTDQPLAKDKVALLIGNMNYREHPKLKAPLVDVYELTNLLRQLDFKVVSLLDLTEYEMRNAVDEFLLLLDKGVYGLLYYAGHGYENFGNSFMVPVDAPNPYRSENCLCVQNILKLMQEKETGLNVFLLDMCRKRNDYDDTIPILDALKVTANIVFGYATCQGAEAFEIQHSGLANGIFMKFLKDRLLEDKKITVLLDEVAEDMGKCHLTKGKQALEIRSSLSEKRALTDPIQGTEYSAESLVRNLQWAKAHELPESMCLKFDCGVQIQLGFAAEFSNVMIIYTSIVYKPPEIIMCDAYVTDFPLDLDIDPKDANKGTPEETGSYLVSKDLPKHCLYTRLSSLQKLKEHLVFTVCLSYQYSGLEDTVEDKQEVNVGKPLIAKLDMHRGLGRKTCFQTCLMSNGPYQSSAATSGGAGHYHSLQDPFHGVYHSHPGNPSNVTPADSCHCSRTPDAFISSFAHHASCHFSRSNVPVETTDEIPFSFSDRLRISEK
The assay is described as follows: The assay buffer consists of 200 mM Tris/HCl at pH 7.5, 0.8 M Na citrate, 100 μM EGTA, 100 μM DTT and 0.05% (w/v) CHAPS. […] Test compounds were dissolved in 100% (v/v) DMSO or a mixture containing 90% (v/v) DMSO and 10% (v/v) H2O at a stock concentration of 100 mM. Serial dilutions of test compounds were prepared using either 100% (v/v) DMSO or a mixture containing 90% (v/v) DMSO and 10% (v/v) H2O.

Each structure is given as a SMILES string. pIC50: −log10 of the molar value.

Among the data in ChEMBL document CHEMBL5726596, “Pyrazolo pyrimidine derivatives and their use as MALT1 inhibitors” (2017) are IC50 values, retold here.

Regarding `CCOc1ncc(NC(=O)Nc2cnc3cc(Cl)nn3c2C(C)C)cc1Cl`, the pIC50 (as a rule, the IC50 on a negative log10 scale, so that one unit is a factor of ten) was 8.30.
